Reference: patent publication US10844091B2 (priority 2017, dated 2020)

Key:
Assay type in all cases: in vivo
[1] = tested on: rat models with Alzheimer's disease; experiment: Extrapolation escape (EE) test, scopolamine-induced Alzheimer's disease model; conditions: 3 min test; scopolamine 1 mg/kg i.p. 27 days; donepezil 1 mg/kg i.p. 10 days, peptide (LYS) 0.1 mg/kg i.n. 10 days
Experimental: (§1) White random-bred adult male rats weighing 200-240 g were used. Groups of 7 animals per group were formed. 1st group—control, 2nd—pathology, 3rd—comparator drug, 4th-6th—neuropeptides.
(§2) Scopolamine was administered i.p. to the animals in all groups except for the control at a 1 mg/kg dose daily, once a day for 27 days. From the 28th day on, the animals in groups 2 and 3 were administered the comparator drug and the claimed preparation respectively over the course of 10 days. The drugs were administered daily, once a day.
(§3) The tetrapeptides were administered i.n at a 0.1 mg/kg dose. The animals in the pathology group received 0.9% sodium chloride solution i.n. and i.p. as a placebo.
(§4) The OF and EE tests were conducted on the 1st day, PST—on the 2nd day, CPAR—on the 1st and 10th day post treatment with the preparations. […] The antiamnesic action (AA) in the CPAR test was calculated using Butler's formula [K. S. Radionova. […] After that, the animals were removed from the experiment by administering a narcotic, followed by decapitation. The brain was extracted and weighed, and the brain weight coefficient (BWC) was calculated. Immediately after extraction, the brain was frozen in liquid nitrogen and used in subsequent biochemical and histochemical studies. Glucose levels in whole arterial (common carotid artery) and venous (venous cerebral sinus) blood were determined by the glucose oxidase test, the difference in the arterial-venous glucose content was calculated (glucose consumption marker). The levels of average weight molecules—the toxic products of cell biodegradation damaged during the disease (nucleoside derivatives, peptoids, glucuronic acid salts, etc.) in the blood serum (AWM) were calculated [A. N. Kovalevsky. Notes on the screening method of determination average weight molecules/A. N. Kovalevsky, O. Ye. Nifantiev//Lab. Science. […] 35-39].

[2] = tested on: rat models with Alzheimer's disease; experiment: Conditioned passive avoidance reflex (CPAR) test, scopolamine-induced Alzheimer's disease model; conditions: for AA less than in the tetrapeptide (LYS) group: donepezil 1 mg/kg; for number of animals who reached the CPAR learning criterium: % of total trained animals, criterium at least 180 sec in light area
Experimental: as §1, §2, §3, §4

[3] = tested on: rat models with AD; experiment: Porsolt swim test (PST), scopolamine-induced Alzheimer's disease model; conditions: AD rats; donepezil 1 mg/kg i.p., tetrapeptide (LYS) 0.1 mg/kg i.n.
Experimental: as §1, §2, §3, §4

COc1cc2c(cc1OC)C(=O)C(CC1CCN(Cc3ccccc3)CC1)C2 (centres unmarked) [donepezil, reference compound]
% of animals succeeded [1]: 100%
Escape time [1]: 18.86 ± 3.57 s
AA less than in the tetrapeptide (LYS) group ([2]; 10th day): 1.9 times
Latent period of entry into the dark area of the CPAR device, In 24 hrs. ([2]; In 24 hrs., scopolamine + donepezil 1 mg/kg or tetrapeptide (LYS) 0.1 mg/kg i.n.): 93.29 ± 26.11 s
Latent period of entry into the dark area of the CPAR device, In 10 days ([2]; In 10 days, scopolamine + donepezil 1 mg/kg or tetrapeptide (LYS) 0.1 mg/kg i.n.): 69.43 ± 11.10^ sec.
Latent period of entry into the dark area of the CPAR device, Initial ([2]; Initial, scopolamine + donepezil 1 mg/kg or tetrapeptide (LYS) 0.1 mg/kg i.n.): 24.00 ± 6.23 s
number of animals who reached the CPAR learning criterium ([2]; first day): 28.6%
AA less than in the tetrapeptide (LYS) group ([2]; first day): 2.9 times
number of animals who reached the CPAR learning criterium ([2]; tenth day): goes down to the level of the pathology group
Latent period of immobilization [3]: 69.43 ± 12.64 s
Number of immobilization acts [3]: 9.29 ± 1.66
